Structures are written as SMILES. A value given as a limit tells only on which side of the number the result lay.

Broadly, the IC50 is the concentration at which inhibition is half-maximal.

Conditions in all cases: Homo sapiens
Assay [1] has as its system CCRF-CEM. Nature of the assay: Compound was tested for anti-HIV activity in TK-deficient CEM cells by inhibition of reverse transcriptase activity. Type of assay: functional, cell-based.
In assay [2] the test system is CCRF-CEM. Kind of assay: Compound was tested for anti-HIV activity in TK-deficient CEM cells by microculture tetrazolium assay. Type of assay: functional, cell-based.
Assay [3] concerns CCRF-CEM. Nature of the assay: Compound was tested for anti-HIV activity in TK-deficient CEM cells by p24 production assay. The format is functional, cell-based.
Assay [4] is described as follows: Compound was tested for anti-HIV activity in normal peripheral blood mononuclear cells by microculture tetrazolium assay. The format is functional.
The nature of assay [5]: Compound was tested for anti-HIV activity in normal peripheral blood mononuclear cells by inhibition of reverse transcriptase activity. The format is functional.
A short description of assay [6]: Compound was tested for anti-HIV activity in normal peripheral blood mononuclear cells infected with HIV-1(RTMDR-1) virus by inhibition of reverse transcriptase activity. The format is functional.
A short description of assay [7]: Compound was tested for anti-HIV activity in normal peripheral blood mononuclear cells infected with HIV-2 virus by inhibition of reverse transcriptase activity. The format is functional.
Assay [8] can be described thus: Compound was tested for anti-HIV activity in normal peripheral blood mononuclear cells by p24 production assay. Type of assay: functional.

`COC(=O)C(C)NP(=O)(OC[C@@H]1C=C[C@H](n2cc(C)c(=O)[nH]c2=O)O1)Oc1ccccc1` (some centres not stated): the IC50 in assay [1] is 100 nM; in assay [2], over 10000 nM; in assay [3], 100 nM; in assay [4], over 10000 nM.

On to `COC(=O)C(C)NP(=O)(OC[C@H]1O[C@@H](n2cc(C)c(=O)[nH]c2=O)C[C@@H]1N=[N+]=[N-])Oc1ccc(Br)cc1` (some centres not stated), for which the IC50 was 40 nM in assay [1]; over 10000 nM in assay [2]; 4 nM in assay [5]; over 10000 nM in assay [4]; 1500 nM in assay [6]; 3900 nM in assay [7].

`COC(=O)C(C)NP(=O)(OC[C@@H]1C=C[C@H](n2cc(C)c(=O)[nH]c2=O)O1)Oc1ccc(OC)cc1` (some centres not stated): the half-inhibitory concentration (IC50) in assay [1] was 300 nM; in assay [2], over 10000 nM; in assay [3], 100 nM; in assay [5], 30 nM; in assay [4], over 10000 nM; in assay [8], 30 nM.

For the molecule `Cc1cn([C@H]2C[C@H](N=[N+]=[N-])[C@@H](CO)O2)c(=O)[nH]c1=O` (single isomer, unassigned) [ZIDOVUDINE], the IC50 was determined as 2000 nM in assay [6] and 2400 nM in assay [7].

With `COC(=O)C(C)NP(=O)(OC[C@@H]1C=C[C@H](n2cc(C)c(=O)[nH]c2=O)O1)Oc1ccc(Br)cc1` (some centres not stated) [STAMPIDINE], the IC50 in assay [1] is 60 nM; in assay [2], over 10000 nM; in assay [3], 40 nM; in assay [5] it was 40 nM; in assay [4], over 10000 nM; in assay [8], 20 nM. Further, the 50% inhibitory concentration (IC50) was 20 nM in assay [6] and 400 nM in assay [7].

With `Cc1cn([C@H]2C=C[C@@H](CO)O2)c(=O)[nH]c1=O` [STAVUDINE], the IC50 in assay [1] was 2400 nM; in assay [2], over 10000 nM; in assay [3] it was 600 nM; in assay [5], 40 nM; in assay [4] it was over 10000 nM; in assay [8], 20 nM.

Source of the values: ChEMBL document CHEMBL1131269, “Enhancing effects of a mono-bromo substitution at the para position of the phenyl moiety on the metabolism and anti-HIV activity of d4T-phenyl methoxyalaninyl phosphate derivatives” (Bioorg Med Chem Lett, 1998).
